In patent US20250064886A1, “CARDIOVASCULAR AND CEREBROVASCULAR DRUG AND USE THEREOF” (HANGZHOU ADAMERCK PHARMLABS INC., priority 2021, published 2025):

Key:
[1] = test system: arteriovenous bypass thrombosis in rats; experiment: Arteriovenous bypass thrombosis in rats (Example 4); format: in vivo, rat; details: for Wet weight of thrombus / Dry weight of thrombus: in g (unit assumed)
Method: Grouping: Divided into 5 groups, with 10 animals in each group. The model control group was given with solvent, and the test drug compound (1) and the positive control were given intravenously once a day for consecutive 3 d. The modeling started 30 min after the last dose.
Model preparation: 50 SD male rats were anesthetized with sodium pentobarbital at a dose of 60 mg/kg via ip. The rat was fixed in the supine position, and the skin was incised at the midline of the neck; the fascia and muscle tissues were separated, the left common carotid artery and the right external jugular vein were dissociated, and the arterio-venous (A-V) bypass surgery was performed using the polyethylene tubing with a built-in thread. The arterial clip was used to clamp the proximal end of the carotid artery, and one end of the polyethylene tubing was inserted into the artery, and another end was inserted into the vein, thereby completing the bypass surgery. 30 minutes after the last dose, the arterial clip was opened, and blood flowed from the left common carotid artery to the right external jugular vein through the bypass tubing, and the blood flow formed a bypass circulation, and the thrombus was taken out 15 min later.
Detection index: the blood flow was open after 15 min, the thread was taken out, the residual liquid was sucked dry, the thread attached with thrombus was weighed and the wet weight of thrombus was calculated; the dry weight of thrombus was weighed and calculated after bake-drying in the oven at 50° C. Thrombosis inhibition rate was calculated. Tails were clipped at the end of the experiment to detect bleeding time.

[2] = test system: cerebral ischemic injury in rats caused by autologous thrombus and thrombin; experiment: Ischemic brain injury in rats caused by autologous thrombus and thrombin (Example 6); format: in vivo, rat
Method: The drug was administered once by slow tail vein injection (1 ml per minute) 2 h after modeling, and the decrease in blood flow was monitored after the injection of thrombin, and 120 min after the administration of the drug. Neurobehavioral scoring was performed to determine the neurological function of rats after 24 h. The cerebral infarction rate and cerebral water content of rats were determined using 2,3,5-triphenyltetrazolium chloride (TTC) staining method, and the pathological damage of the brain of rats administered with drug 2 h after cerebral ischemia was observed by hematoxylin-eosin (HE) staining.

rats = experiment: Bleeding time in rats, tail clipping (Example 4); format: in vivo, rat
Method: Grouping: Divided into 5 groups, with 10 animals in each group. […] The modeling started 30 min after the last dose. Detection index: the blood flow was open after 15 min, the thread was taken out, the residual liquid was sucked dry, the thread attached with thrombus was weighed and the wet weight of thrombus was calculated; the dry weight of thrombus was weighed and calculated after bake-drying in the oven at 50° C. Thrombosis inhibition rate was calculated. Tails were clipped at the end of the experiment to detect bleeding time.

[3] = test system: vascular endothelial injury induced thrombosis model in zebrafish; experiment: Preventative effect on vascular endothelial injury induced thrombosis, ponatinib zebrafish model (Example 1); format: in vivo; details: 4.00 ng/tail injected
Method: Experimental method: 420 tails of 5 dpf wild type AB strain zebrafish were randomly selected and placed in a six-well plate, with 30 fish per well (experimental group). The fish were injected with compound (1), compound (2), compound (3), compound (4), compound (5), compound (6), compound (7), compound (8), compound (9), compound (10), and compound (11) (structural formula shown in Table 1) at a dose of 4.00 ng/tail, with positive control drug acetylsalicylic acid being administered by dissolving it in water at a concentration of 30.0 µg/mL. Normal control group (i.e. zebrafish treated with standard diluted water) and model control group were set up, with a capacity of 3 mL per well (experimental group). Except for normal control group, the remaining experimental groups were all given Punatinib by dissolving it in water to induce vascular endothelial injury induced thrombosis model in zebrafish. The zebrafish were stained with o-dianisidine after co-treatment with ponatinib and samples for a period of time under incubation conditions at 28° C.
After staining, 10 zebrafish in each group were randomly selected and photographed under the microscope, and the intensity of cardiac erythrocyte staining in zebrafish was analyzed using NIS-Elements D 3.20 advanced image-processing software, and the samples were evaluated for the preventative effect on vascular endothelial injury induced thrombosis by the statistical results of cardiac erythrocyte staining intensity.
The preventative effect on thrombosis is calculated as follows: […]
Statistical analysis was performed using SPSS software, and p<0.05 indicates significant differences

[4] = test system: rats with focal cerebral ischemia (MCAO)/reperfusion; experiment: Therapeutic administration, cerebral ischemia-reperfusion injury MCAO/R in rats (Example 7); format: in vivo, rat
Method: Experimental method: SD rats were randomly divided into 11 groups, including pseudosurgery group, a model control group, positive control drug edaravone via intravenous injection (6 mg/kg, i.v.) group, positive control drug butylphthalide injection via intravenous injection (5 mg/kg, i.v.) group, compound (1) high-dose (24 mg/kg, i.v.), medium-dose (12 mg/kg, i.v.), low-dose (6 mg/kg, i.v.) via intravenous injection group, positive drug butylphthalide soft capsule via intragastric administration (60 mg/kg, i.g.) group, and compound via intragastric administration at (1) high-dose (60 mg/kg, i.g.), medium-dose (30 mg/kg, i.g.), low-dose (15 mg/kg, i.g.) group. A middle cerebral artery occlusion (MCAO) model for cerebral ischemia-reperfusion of male rats was prepared using the internal carotid suture-occluded method with an ischemic time of 90 min followed by reperfusion. Injection and oral administration for once were performed 1 h after reperfusion, and neurobehavioral scoring was performed on rats after 24 h to determine neurological function in rats; the cerebral infarction rate and cerebral water content of rats were determined by 2,3,5-triphenyltetrazolium chloride (TTC) staining.

Compound: CC(=O)N[C@H](CSCC1OC2OC3C(CSC[C@@H](NC(C)=O)C(=O)[O-])OC(OC4C(CSC[C@@H](NC(C)=O)C(=O)[O-])OC(OC5C(CSC[C@@H](NC(C)=O)C(=O)[O-])OC(OC6C(CSC[C@@H](NC(C)=O)C(=O)[O-])OC(OC7C(CSC[C@@H](NC(C)=O)C(=O)[O-])OC(OC8C(CSC[C@@H](NC(C)=O)C(=O)[O-])OC(OC9C(CSC[C@@H](NC(C)=O)C(=O)[O-])OC(OC1C(O)C2O)C(O)C9O)C(O)C8O)C(O)C7O)C(O)C6O)C(O)C5O)C(O)C4O)C(O)C3O)C(=O)[O-].[Na+].[Na+].[Na+].[Na+].[Na+].[Na+].[Na+].[Na+] (stereo partly shown) [Compound (1)]
- Dry weight inhibition rate (%) ([1]; 10 mg/kg i.v.): 15.9%
- Wet weight inhibition rate (%) ([1]; 10 mg/kg i.v.): 19.4%
- Wet weight of thrombus ([1]; 10 mg/kg i.v. once a day 3 d, x ± s, n = 10): 0.0254 ± 0.0042
- Dry weight of thrombus ([1]; 10 mg/kg i.v. once a day 3 d): 0.0069 ± 0.0014
- Dry weight inhibition rate (%) ([1]; 20 mg/kg i.v.): 26.8%
- Wet weight inhibition rate (%) ([1]; 20 mg/kg i.v.): 21.9%
- Dry weight of thrombus ([1]; 20 mg/kg i.v. once a day 3 d): 0.006 ± 0.0014
- Wet weight of thrombus ([1]; 20 mg/kg i.v. once a day 3 d): 0.0246 ± 0.0045
- Dry weight inhibition rate (%) ([1]; 40 mg/kg i.v.): 37.8%
- Wet weight inhibition rate (%) ([1]; 40 mg/kg i.v.): 34.3%
- Dry weight of thrombus ([1]; 40 mg/kg i.v. once a day 3 d): 0.0051 ± 0.0011
- Wet weight of thrombus ([1]; 40 mg/kg i.v. once a day 3 d): 0.0207 ± 0.0041
- Cerebral blood flow: Percentage decrease after injection of thrombin (%) ([2]; 22.5 mg/kg group, value before administration, mean ± SD, n = 10): 43.67 ± 7.17%
- Cerebral infarction rate (%) ([2]; 22.5 mg/kg i.v.): 13.91 ± 10.78 %
- Cerebral water content (%) ([2]; 22.5 mg/kg i.v.): 79.93 ± 1.98 %
- Cerebral blood flow: Percentage decrease two hours after administration (%) ([2]; 22.5 mg/kg i.v. once 2 h after modeling): 27.14 ± 6.38 %
- Pathological damage score ([2]; 22.5 mg/kg i.v., HE staining, mean ± SD, n = 10): 1.90 ± 1.10
- Behavioral score ([2]; 22.5 mg/kg i.v., after 24 h): 1.60 ± 0.70
- Bleeding time (rats; 10 mg/kg i.v., x ± s, n = 10): 403.4 ± 185.1 s
- Bleeding time (rats; 20 mg/kg i.v.): 422.6 ± 205.7 s
- Bleeding time (rats; 40 mg/kg i.v.): 428.4 ± 185.6 s
- Effect on the bleeding time in rats, in words (rats; intravenous, compared with model control group): no significant effect
- Preventative effect on thrombosis (%) [3]: 66%
- Cardiac erythrocyte staining intensity (pixels, mean ± SE) ([3]; n = 10): 4397 ± 454 pixels
- Cardiac erythrocyte staining intensity (pixels, mean ± SE) ([3]; n = 10, listed as compound (1)): 4397 pixels
- Behavioral score ([4]; 6 mg/kg i.v. low-dose): 2.13 ± 0.35
- Cerebral infarction rate (%) ([4]; 6 mg/kg i.v. low-dose): 30.03 ± 7.79%
- Cerebral water content (%) ([4]; 6 mg/kg i.v. low-dose): 82.30 ± 1.04 %
- Behavioral score ([4]; 12 mg/kg i.v. medium-dose): 1.88 ± 0.35
- Cerebral infarction rate (%) ([4]; 12 mg/kg i.v. medium-dose): 16.94 ± 9.52 %
- Cerebral water content (%) ([4]; 12 mg/kg i.v. medium-dose): 80.74 ± 0.89 %
- Behavioral score ([4]; 15 mg/kg i.g. low-dose): 2.25 ± 0.71
- Cerebral infarction rate (%) ([4]; 15 mg/kg i.g. low-dose): 29.49 ± 5.93%
- Cerebral water content (%) ([4]; 15 mg/kg i.g. low-dose): 82.24 ± 1.49%
- Behavioral score ([4]; 24 mg/kg i.v. high-dose): 1.62 ± 0.52
- Cerebral water content (%) ([4]; 24 mg/kg i.v. high-dose): 79.95 ± 1.16 %
- Cerebral infarction rate (%) ([4]; 24 mg/kg i.v. high-dose, 1 h after reperfusion): 11.64 ± 9.38 %
- Behavioral score ([4]; 30 mg/kg i.g. medium-dose): 2.00 ± 0.53
- Cerebral infarction rate (%) ([4]; 30 mg/kg i.g. medium-dose): 21.52 ± 11.04 %
- Cerebral water content (%) ([4]; 30 mg/kg i.g. medium-dose): 80.61 ± 1.21 %
- Behavioral score ([4]; 60 mg/kg i.g. high-dose): 1.62 ± 0.52
- Cerebral infarction rate (%) ([4]; 60 mg/kg i.g. high-dose): 13.61 ± 10.24 %
- Cerebral water content (%) ([4]; 60 mg/kg i.g. high-dose): 79.87 ± 1.71 %
